Test results: patent publication US20070021412A1, “Treatment of gastrointestinal dysfunction and related stress with an enantiomerically-pure (S) 2,3-benzodiazepine” (Vela Pharmaceuticals, Inc., priority 2003, published 2007)

Tests used:
[1] = test system: Gastrointestinal Propulsive Motility; test: Charcoal Meal Test (basal gastrointestinal propulsion); format: in vivo, rat; conditions: for % Inhibition (gastrointestinal propulsive motility): numbers in parentheses indicate % increase
Procedure: The charcoal meal test is a standard method for evaluating the effect of compounds on basal, nonstimulated propulsive motility of the stomach and small intestine. It is generally considered predictive of a compound's ability to inhibit or accelerate basal gastric propulsion in humans. In the test, usually performed in rats, nonactivated charcoal powder is administered by oral gavage. Sixty minutes after administration of the charcoal suspension, rats were sacrificed by CO2 inhalation, the stomach and small intestine were removed, and the distance between the pylorus and the furthest progression of the charcoal meal was measured and compared to the distance between the pylorus and the ileocecal junction. This model is especially sensitive to compounds with the ability to increase or decrease basal propulsive motor activity of the stomach and small intestine. It is therefore often used to predict the potential for compounds to exert antidiarrheal or anticonstipatory effects, as well as to predict the potential for compounds to produce diarrhea or constipation as a side-effect. Two charcoal meal test were performed in rats. In each study, (RS)-, (R)-and (S)-tofisopam were evaluated for their for their ability to increase or decrease the percent of the intestine traversed by a charcoal meal. Test compounds were administered 30 minutes prior to administration of the charcoal meal.

[2] = test system: stress-induced ulcer formation; test: Water immersion stress-induced ulcers test; format: in vivo, rat; conditions: for Ulceration Index: ulcer score × percentage of stomachs showing ulcers; for Score for the Presence of Ulcers Mean ± SEM: score 0-4, N = 8
[3] = test system: Colonic Propulsive Motility; test: Glass Bead Test (stretch-stimulated colonic propulsion); format: in vivo, mouse; conditions: for Expulsion Time Mean ± SEM: 30 minutes before bead, cutoff 30 minutes, in min
Procedure: In the test, usually performed in mice, a 3-mm glass bead is inserted through the anus into the distal colon (using a glass rod) to a depth of 2 cm. The time to expel the glass bead is then measured; normally, the glass bead is expelled in approximately 10 minutes. This model is especially sensitive to compounds with inhibitory effects on stretch-stimulated propulsive motor activity; as such, it is often used as an animal model for IBS. A test compound that inhibits stretch-stimulated-colonic propulsive motility may be used to treat gastrointestinal dysfunction, including IBS. Both enantiomerically-pure (R)- and (S)-tofisopam inhibited propulsive motility to a greater extent than the racemate.
The glass bead test is commmonly used to evaluate the ability of compounds to affect stimulated colonic propulsion. In the test, usually performed in mice, a 3-mm glass bead is inserted through the anus into the distal colon (using a glass rod) to a depth of 2 cm. The time to expel the glass bead is then measured; normally, the glass bead is expelled in approximately 10 minutes. This model is especially sensitive to compounds with inhibitory effects on stretch-stimulated propulsive motor activity; as such, it is often used as an animal model for IBS.
In each study, (RS)-, (R)- and (S)-tofisopam were evaluated for their ability to increase or decrease the time for expulsion of the glass bead. Test compounds were administered 30 minutes prior to insertion of the bead, and a maximum time cutoff of 30 minutes to expulsion was used.

[4] = test system: visceral hypersensitivity, pain, and bloating induced by colonic distension; test: Visceral hypersensitivity, pain and bloating test (abdominal contractions after colonic distension and acetic acid); format: in vivo, rat; conditions: 32 mg/kg p.o.
Procedure: In yet another gastrointestinal disorder model, the visceral pain and bloating test, the ability of (R)- and (S)-tofisopam to inhibit abdominal contractions in the rat was investigated. (R)- and (S)-tofisopam were able to inhibit abdominal contractions to a greater extent than racemic tofisopam. The effects of (R)-tofisopam, (S)-tofisopam, and (RS)-tofisopam were evaluated for alleviating visceral hypersensitivity, pain, and bloating. […] Eur. J. Pharmacol. 324: 211-217 (1997); Langlois et al. Eur. J. Pharmacol. 318: 141-144 (1996)). The acetic acid makes the colon hypersensitive, modeling the visceral hypersensitivity seen in IBS. The colonic distension models the pain and bloating seen in IBS, and causes abdominal contractions in rats. In the control group 13.8±2.0 abdominal contractions were measured over the 10-minute period of observation.

**Q.** Which results are given for `CC[C@@H]1C(C)=NN=C(c2ccc(OC)c(OC)c2)c2cc(OC)c(OC)cc21` [(S)-tofisopam, (S)-1-(3,4-dimethoxyphenyl)-4-methyl-5-ethyl-7,8-dimethoxy-5H-2,3-benzodiazepine]?
**A.** % Intestine Traversed, Mean ± SEM ([1]; first experiment, 64 mg/kg IP): 75.7 ± 3.1%; % Inhibition (gastrointestinal propulsive motility) ([1]; first experiment, 64 mg/kg IP): 7.1%; % Intestine Traversed, Mean ± SEM ([1]; second experiment, 4 mg/kg IP): 79.1 ± 1.3%; % Intestine Traversed, Mean ± SEM ([1]; second experiment, 8 mg/kg IP): 80.9 ± 1.9%; % Intestine Traversed, Mean ± SEM ([1]; second experiment, 16 mg/kg IP): 73.3 ± 1.2%; % Inhibition (gastrointestinal propulsive motility) ([1]; second experiment, 16 mg/kg IP): 1.9%; % Intestine Traversed, Mean ± SEM ([1]; second experiment, 32 mg/kg IP): 60.8 ± 2.8 %; % Inhibition (gastrointestinal propulsive motility) ([1]; second experiment, 32 mg/kg IP): 19.7%; Ulceration Index ([2]; 16 mg/kg IP): 313; % of Stomachs Showing Ulcers ([2]; 32 mg/kg IP): 38%; Score for the Presence of Ulcers Mean ± SEM ([2]; 32 mg/kg IP): 1.1 ± 0.4; Ulceration Index ([2]; 32 mg/kg IP): 42; % of Stomachs Showing Ulcers ([2]; 64 mg/kg IP): 38%; Score for the Presence of Ulcers Mean ± SEM ([2]; 64 mg/kg IP): 1.3 ± 0.3; Ulceration Index ([2]; 64 mg/kg IP): 47; % Inhibition (colonic expulsion) ([3]; 32 mg/kg IP): 100%; Expulsion Time Mean ± SEM ([3]; 32 mg/kg IP): 30.0 ± 0.0; % Inhibition (colonic expulsion) ([3]; 64 mg/kg IP): 100%; Expulsion Time Mean ± SEM ([3]; 64 mg/kg IP): 30.0 ± 0.0; number of abdominal cramps ([4]; vehicle control 18.8±1.8 cramps): 10.4±1.3 cramps; decrease of abdominal cramps ([4]; versus vehicle control): 45%
